Measurements as given in patent EP2343074A1, “Use of purine analogues for treating airway diseases” (Merck Serono S.A., priority 2009, dated 2011).

Assays:
BALB/c mice = type: in vivo; details: female BALB/c mice
Experimental: Female BALB/c mice, aged 10-12 wk, are housed in environmentally controlled specific pathogen-free conditions for 1 wk before study and for the duration of the experiments, which are performed according to J Appl Physiol, VOL 97, 2004, 2258-2265. Accordingly, mice are sensitized with intraperitoneal ovalbumin conjugated to aluminum potassium sulfate, as described in Am J Respir Cell Mol Biol 21: 473-479, 1999. Sensitized mice are subjected to either brief or chronic periods of allergen exposure, as described in Am J Respir Cell Mol Biol 27: 526-535, 2002. Control mice are subjected to the same sensitization protocol but are receiving saline challenges.
Allergen-challenged and control mice are studied at 24 h after the final exposure (at day 21) in the brief allergen-challenge protocol and at week 4 after the final exposure in the chronic allergen-challenge protocol. […]
At day 21 or week 4, respectively, the underlying contributors to airway responsiveness, namely airway reactivity [slope of increase in total respiratory system resistance (Rrs) for a given increase in MCh dose], airway sensitivity (lowest dose of MCh to produce bronchoconstriction), and the maximum inducible bronchoconstriction (maximum Rrs) are measured following brief or chronic allergen challenge. These components of airway responsiveness are measured based on the response of Rrs to saline and increasing (10, 33, 100, and 330 µg/kg) intravenous doses of MCh. Rrs is measured by using the flow interrupter technique, modified for use in mice, and described in Am J Respir Cell Mol Biol 21: 473-479, 1999, Am J Respir Cell Mol Biol 27: 526-535, 2002 and J Appl Physiol 89: 413-421, 2000. Total respiratory system resistance (Rrs) is measured in response to increasing doses of intravenous methacholine (MCh). Using the resulting Rrs-MCh dose-response curve, indexes of airway reactivity (Slope Rrs), airway sensitivity, or the lowest dose to produce bronchoconstriction (Break Rrs) and maximal degree of bronchoconstriction (Max Rrs) are measured. […]

[1] = test system: patient having asthma with recurring asthma attacks; assay: Treatment of an asthma patient with oral cladribine tablets; type: in vivo; details: dosage regimen disclosed in WO2006067141
Experimental: A patient having asthma with recurring asthma attacks is treated with oral cladribine tablets and following the dosage regimen disclosed in WO2006067141. As a result, the symptoms of asthma and airway hyperresponsiveness are reduced in this patient.

Nc1nc(Cl)nc2c1ncn2[C@H]1C[C@H](O)[C@@H](CO)O1 [cladribine, 2-chloro-9-(2'-deoxy-beta-D-ribofuranosyl)-adenine]
signs of asthma, increased airway reactivity and maximal bronchoconstriction (BALB/c mice; brief or chronic allergen exposure, cladribine intraperitoneally 15 mg/kg per injection, as compared to the control): beneficial to reduce | asthma related symptoms such as increased bronchoconstriction and allergen-induced development of AHR (BALB/c mice; brief or chronic allergen exposure, cladribine intraperitoneally on days 1, 5 and 9, 15 mg/kg body weight per injection, versus phosphate buffer without cladribine): reduces or abrogates | host toxicity (BALB/c mice; cladribine intraperitoneally on days 1, 5 and 9, 15 mg/kg body weight per injection): little or no host toxicity | symptoms of asthma and airway hyperresponsiveness [1]: reduced
